From the supplement of paper PMC10307832

Columns and labels:
Experiment in all cases: relative viability (nuclei count vs DMSO), 5 days (fraction); higher = more cells survive
Daporinad + Luminespib = compound: O=C(/C=C/c1cccnc1)NCCCCC1CCN(C(=O)c2ccccc2)CC1 [Daporinad] + CCNC(=O)c1noc(-c2cc(C(C)C)c(O)cc2O)c1-c1ccc(CN2CCOCC2)cc1 [Luminespib] (partner 0.01 µM)
Outline: (§1)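 Lung cancer cell lines in 1536-well plates got either a single drug or a fixed anchor-drug dose together with five library-drug doses (not always all listed) in √10 steps, by pin tool, on the day after seeding. Nuclei were counted after 5 days, and relative viability is the treated-to-vehicle ratio of nuclei counts. Values are medians of duplicate plates.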

R406 + Crizotinib = compound: COc1cc(Nc2ncc(F)c(Nc3ccc4c(n3)NC(=O)C(C)(C)O4)n2)cc(OC)c1OC [R406] + C[C@@H](Oc1cc(-c2cnn(C3CCNCC3)c2)cnc1N)c1c(Cl)ccc(F)c1Cl [Crizotinib] (partner 1 µM)
Outline: as §1

Daporinad + Dasatinib = compound: O=C(/C=C/c1cccnc1)NCCCCC1CCN(C(=O)c2ccccc2)CC1 [Daporinad] + Cc1nc(Nc2ncc(C(=O)Nc3c(C)cccc3Cl)s2)cc(N2CCN(CCO)CC2)n1 [Dasatinib] (partner 0.075 µM)
Outline: as §1

Daporinad + Navitoclax = compound: O=C(/C=C/c1cccnc1)NCCCCC1CCN(C(=O)c2ccccc2)CC1 [Daporinad] + CC1(C)CCC(c2ccc(Cl)cc2)=C(CN2CCN(c3ccc(C(=O)NS(=O)(=O)c4ccc(N[C@H](CCN5CCOCC5)CSc5ccccc5)c(S(=O)(=O)C(F)(F)F)c4)cc3)CC2)C1 [Navitoclax] (partner 0.5 µM)
Outline: as §1

| Cell Line | relative viability (Daporinad + Luminespib; first compound 0.0005 µM) | relative viability (Daporinad + Luminespib; first compound 0.001581 µM) | relative viability (Daporinad + Luminespib; first compound 0.005 µM) | relative viability (Daporinad + Luminespib; first compound 0.01581 µM) | relative viability (R406 + Crizotinib; first compound 0.08 µM) | relative viability (R406 + Crizotinib; first compound 0.253 µM) | relative viability (R406 + Crizotinib; first compound 0.8 µM) | relative viability (R406 + Crizotinib; first compound 8 µM) | relative viability (Daporinad + Dasatinib; first compound 0.0005 µM) | relative viability (Daporinad + Dasatinib; first compound 0.001581 µM) | relative viability (Daporinad + Dasatinib; first compound 0.005 µM) | relative viability (Daporinad + Dasatinib; first compound 0.01581 µM) | relative viability (Daporinad + Navitoclax; first compound 0.0005 µM) | relative viability (Daporinad + Navitoclax; first compound 0.001581 µM) | relative viability (Daporinad + Navitoclax; first compound 0.005 µM) | relative viability (Daporinad + Navitoclax; first compound 0.01581 µM) | relative viability (R406 + Crizotinib; first compound 2.53 µM) |
| --- | --- | --- | --- | --- | --- | --- | --- | --- | --- | --- | --- | --- | --- | --- | --- | --- | --- |
| NCI-H460 | 0.0254 | 0.0436 | 0.0289 | 0.0343 | 0.829 | 1.09 | 1.16 | 0.441 | 0.575 | 0.639 | 0.489 | 0.505 | 1.09 | 1.32 | 0.978 | 0.855 |  |
| NCI-H520 | 0.235 | 0.193 | 0.197 | 0.195 | 0.735 | 1.09 | 0.875 | 0.269 | 0.248 | 0.227 | 0.162 | 0.182 | 0.945 | 0.442 | 0.258 | 0.197 | 0.58 |
| NCI-H596 | 0.919 | 1.04 | 1.05 | 0.479 | 0.837 | 1.1 | 1.09 | 0.245 | 0.68 | 0.677 | 0.692 | 0.576 | 1.01 | 1.05 | 1.3 | 0.291 | 0.796 |
| NCI-H647 | 0.183 | 0.173 | 0.239 | 0.182 | 0.987 | 1.35 | 1.26 | 0.0968 | 0.146 | 0.27 | 0.282 | 0.196 | 1.03 | 1.27 | 1.25 | 1.14 | 0.573 |
| NCI-H727 | 0.257 | 0.27 | 0.37 | 0.195 | 0.866 | 0.852 | 0.898 | 0.301 | 0.475 | 0.327 | 0.437 | 0.364 | 0.409 | 0.568 | 0.483 | 0.29 | 0.714 |
| NCI-H838 | 0.288 | 0.332 | 0.343 | 0.29 | 0.806 | 0.945 | 0.949 | 0.516 | 0.276 | 0.29 | 0.296 | 0.296 | 1.15 | 1.23 | 0.928 | 0.624 | 0.612 |
| NCI-H1355 | 0.79 | 0.793 | 0.752 | 0.81 | 1.09 | 1.14 | 1.25 | 0.687 | 0.664 | 0.674 | 0.671 | 0.761 | 0.911 | 0.98 | 1.05 | 0.951 | 0.909 |
| NCI-H1437 | 1.14 | 1.16 | 1.15 | 1.06 | 0.944 | 1.13 | 0.971 | 0.716 | 0.342 | 0.47 | 0.4 | 0.415 | 1.09 | 1.1 | 1.04 | 1.07 | 0.864 |
| NCI-H1650 | 0.187 | 0.182 | 0.182 | 0.196 | 1.05 | 1.09 | 0.961 | 0.139 | 0.379 | 0.366 | 0.325 | 0.247 | 1.21 | 1.44 | 1.28 | 0.501 | 0.327 |
| NCI-H1651 | 0.829 | 0.676 | 0.805 | 0.67 | 0.869 | 0.914 | 0.853 | 0.929 | 0.419 | 0.433 | 0.439 | 0.446 | 1.14 | 1.16 | 0.813 | 0.758 | 0.815 |
| NCI-H1666 | 1.01 | 0.985 | 1.07 | 1.03 | 0.92 | 1.3 | 0.973 | 0.461 | 0.746 | 0.871 | 0.674 | 0.721 | 0.957 | 1.05 | 0.861 | 0.796 | 0.849 |
| NCI-H1734 | 0.233 | 0.187 | 0.185 | 0.228 | 0.707 | 0.814 | 0.654 | 0.292 | 0.566 | 0.489 | 0.495 | 0.462 | 0.845 | 0.96 | 0.903 | 0.601 | 0.542 |
| NCI-H1755 | 0.31 | 0.381 | 0.541 | 0.488 | 0.81 | 0.954 | 0.861 | 0.188 | 0.414 | 0.435 | 0.388 | 0.408 | 0.987 | 0.974 | 1.04 | 0.989 | 0.641 |
| NCI-H1792 |  | 0.443 | 0.347 | 0.604 | 0.842 | 1.03 | 1.03 | 0.884 | 0.617 | 0.815 | 0.477 | 0.921 | 0.702 | 0.722 | 0.534 | 0.621 | 0.925 |
| NCI-H1915 | 0.893 | 0.703 | 0.786 | 0.824 | 0.898 | 0.975 | 0.959 | 0.874 | 0.299 | 0.331 | 0.399 | 0.337 | 0.805 | 0.739 | 0.765 | 0.809 | 0.782 |
| NCI-H1944 | 0.85 | 0.802 | 0.829 | 0.729 | 1.1 | 1.24 | 1.04 | 0.737 | 0.228 | 0.232 | 0.221 | 0.237 | 1.08 | 1.05 | 0.981 | 1.09 | 0.875 |
| NCI-H1975 | 0.206 | 0.262 | 0.183 | 0.3 | 0.949 | 1.13 | 0.977 | 0.221 | 0.336 | 0.364 | 0.356 | 0.38 | 1.28 | 1.18 | 1.06 | 1.06 | 0.46 |
